Test results as given in patent US20090259043A1, “TRICYCLIC CYTOPROTECTIVE COMPOUNDS” (HUNTER-FLEMING LIMITED, priority 2005, published 2009).

Assays:
[1] = tested on: organotypic hippocampal slice cultures; test: Neuroprotection against hypoxia in organotypic hippocampal slice cultures (PI fluorescence in CA1); assay type: cell-based, Wistar rat; details: vs control (hypoxia only = 100% damage); 180 min hypoxia; compound present 45 min pre-hypoxia, during and 24 h post-hypoxia; PI fluorescence area in CA1
Procedure: Organotypic hippocampal slice cultures were prepared using the basic method of Pringle et al [Brain Res. 755, 36-46 (1997)] modified as follows:
Wistar rat pups (8-11 days old) were decapitated and the hippocampus rapidly dissected into ice-cold Gey's balanced salt solution supplemented with 4.5 mg/ml glucose. Slices were separated and plated onto Millicell CM culture inserts (4 per well) and maintained at 37° C./5% CO2 for 14 days. Maintenance medium consisted of 25% heat-inactivated horse serum, 25% Hank's balanced salt solution (HBSS) and 50% minimum essential medium with added Earle's salts (MEM) supplemented with 1 mM glutamine and 4.5 mg/ml glucose. Medium was changed every 3-4 days.
Experimental hypoxia was performed as described previously (Pringle et al., Stroke 27, 21-24 (1996)& Brain Res. 755, 36-46 (1997)]. Briefly, cultures were transferred to serum free medium (SFM-75% MEM, 25% HBSS supplemented with 1 mM glutamine and 4.5 mg/ml glucose) containing 5 μg/ml of the fluorescent exclusion dye propidium iodide (PI). Cultures were allowed to equilibrate in SFM for 60 minutes prior to imaging. PI fluorescence was detected using a Leica DMIL inverted microscope fitted with a rhodamine filter set. Any cultures in which PI fluorescence was detected at this stage were excluded from further study. Hypoxia was induced by transferring cultures to SFM (+PI) which had been saturated with 95% N2/5% CO2. Culture plates (without lids) were then sealed into an airtight chamber in which the atmosphere was saturated with 95% N2/5% CO2 by continuously blowing through gas at 10 L/minute for ten minutes before being sealed and placed in the incubator for 170 minutes (total time of hypoxia was therefore 180 minutes). At the end of the hypoxic period cultures were returned to normoxic SFM containing PI and placed back in the incubator for 24 hours.
Neuronal damage was assessed using ImageJ running on a PC. Images were captured using a CCD camera and saved for offline analysis. Light transmission images were captured prior to the addition of drugs, and PI fluorescence images recorded at the end of the 24-hour post-hypoxia recovery period. The area of the CA1 sub-region was determined from the transmission image. The area of PI fluorescence in the CA1 was measured using the threshold function on ImageJ, and neuronal damage expressed as the percentage of the CA1 in which PI fluorescence was detected above background.
Unpaired Student's t-tests were employed to ascertain statistical significance.
A series of compounds were examined for possible neuroprotection against hypoxia in organotypic hippocampal slice cultures. Compounds No. 4, 6, 7, 8, 10, 14, 15, 16, 17, 20, 21, 22 and 23 were dissolved in DMSO to a concentration of 1 mg/ml.
7β-hydroxy-epiandrosterone (7β-OH EPIA), a neuroprotective compound, at 100 nM concentrations, was employed as a positive control. A stock solution of 1 mg/ml was dissolved in ethanol. Final dilutions were made in SFM.
The efficacy of all compounds was assessed using a pre-during and post-hypoxia paradigm—compounds were present in the medium 45 minutes pre-hypoxia, the 3 hours of hypoxia and 24 hours post-hypoxia.

| SMILES | % damage in hypoxia model with compound [1] [%] | melting point |
| --- | --- | --- |
| O/N=C1\CCc2[nH]c3ccccc3c2C1 [Compound No. 21, (3E)-1,2,4,9-Tetrahydro-3H-carbazol-3-one oxime] | 40 | 173 to 175 °C (dec.) |
| COc1ccc2[nH]c3c(c2c1)CS(=O)(=O)CC3 [Compound No. 12, 8-Methoxy-1,3,4,5-tetrahydrothiopyrano[43-b]indole 2,2-dioxide] | – | 283 to 286 °C (dec.) |
| COc1ccc2[nH]c3c(c2c1)CCCC3 [compound 16, Methyl 2,3,4,9-tetrahydro-1H-carbazol-6-yl ether] | 60 | – |
| COc1ccc2[nH]c3c(c2c1)CCC3 [Compound No. 17, 7-Methoxy-1,2,3,4-tetrahydrocyclopenta[b]indole] | 35 | 128 to 130 °C |
| COc1ccc2[nH]c3c(c2c1)CCC(C(=O)O)C3 (stereo not drawn) [Compound No. 15, 6-Methoxy-2,3,4,9-tetrahydro-11H-carbazole-2-carboxylic acid] | 65 | – |
| OC1CCc2[nH]c3ccccc3c2C1 (stereo not drawn) [Compound No. 4, 2,3,4,9-Tetrahydro-1H-carbazol-3-ol] | 58 | – |
| Cc1ccc(C)c2c3c([nH]c12)CC(C(=O)O)CC3 (stereo not drawn) | – | 228 to 230 °C |
| O=C1CCc2[nH]c3ccccc3c21 [Compound No. 8, 3,4-dihydrocyclopenta[b]indol-1 (2H)-one] | 59 | – |
| O=C(O)c1ccc2[nH]c3c(c2c1)CCC3 [Compound No. 18, 1,2,3,4-Tetrahydrocyclopenta[b]indole-7-carboxylic acid] | – | 270 to 274 °C |
| COc1ccc2[nH]c3c(c2c1)CC1(CC3)OCCO1 [Compound No. 22] | 75 | 168 to 169 °C |
| O/N=C1\CCCc2[nH]c3ccccc3c21 [Compound No. 20, (4E)-1,2,3,9-Tetrahydro-4H-carbazol-4-one oxime] | 54 | – |
| COc1ccc2[nH]c3c(c2c1)CC(=O)CC3 [compound 23, 6-Methoxy-1,2,4,9-tetrahydro-3H-carbazol-3-one] | 57 | – |
| Cc1ccc(C)c2c3c([nH]c12)CCC(O)C3 (stereo not drawn) | – | 158 to 161 °C |
| O=C(O)c1ccc2[nH]c3c(c2c1)CCCC3=O [Compound No. 14, 1-Oxo-2,3,4,9-tetrahydro-1H-carbazole-6-carboxylic acid] | 53 | – |
| Cc1ccc2c3c([nH]c2c1C)CCC(O)C3 (stereo not drawn) [Compound No. 10, 7,8-Dimethyl-2,3,4,9-tetrahydro-1H-carbazol-3-ol] | 76 | 192 to 195 °C |
| c1ccc2c3c([nH]c2c1)CCC1(C3)OCCO1 [Compound No. 6, 1,2,4,9-Tetrahydro-spiro[carbazole-3,2′-[1,3-dioxolane]] | 63 | – |
| O=C1CCc2[nH]c3ccccc3c2C1 [Compound No. 7, 1,2,4,9-Tetrahydro-3H-carbazol-3-one] | 70 | – |
